# Measurements: patent US9420781B1, “Agrochemical adjuvant concentrate for herbicides” (LAMBERTI SpA, priority 2015, dated 2016)
# Experiments:
# Assay in all cases: Herbicidal Effectiveness Test
# Assay type in all cases: in vivo
# Conditions in all cases: tank mix with Roundup PM 11 fl oz/a, Clarity 6 fl oz/a
# ZEAMX Corn = system: ZEAMX Corn
# Experimental: (§1) 4 diluted sprayable herbicide tank mixes were prepared using water with an hardness of 1000 ppm, 0.25% v/v of NIS and the adjuvant concentrates of Example 1 and 3-5.
# (§2) For comparative purpose, two other diluted herbicide sprayable tank mixes with two different adjuvants, AMS and DPK 50, were prepared.
# (§3) The formulations contained, as herbicides, Roundup® PM for an application rate of 11 fl oz/a (803 ml/h) and Clarity® for an application rate of 6 fl oz/a (438 ml/h).
# (§4) The formulation were applied on a multispecies system.
# (§5) The herbicidal performances were evaluated by awarding scores to the treated plants in comparison to untreated control plants. The evaluation scale ranges from 0% to 100% herbicidal activity. 100% activity means the complete death at least of those parts of the plant that are above ground.
# (§6) The results 14 and 28 days after the treatment are reported in the following Table 3 and Table 4 respectively.
# HELSS Sunflower = system: HELSS Sunflower
# Experimental: as §1, §2, §3, §4, §5, §6
# LIUSS Flax = system: LIUSS Flax
# Experimental: as §1, §2, §3, §4, §5, §6
# AMASS Amaranth = system: AMASS Amaranth
# Experimental: as §1, §2, §3, §4, §5, §6
# [1] = 14 days after treatment, adjuvant 8.5 lb/100 gal, 0.25% v/v NIS, water hardness 1000 ppm
# [2] = 14 days after treatment, adjuvant 17 lb/100 gal, 0.25% v/v NIS, water hardness 1000 ppm
# [3] = 28 days after treatment, adjuvant 8.5 lb/100 gal
# [4] = 28 days after treatment, adjuvant 17 lb/100 gal
compound,measurement,setting,value
"N.N.O=S(=O)(O)O [AMS, ammonium sulfate]","herbicidal activity, Corn",ZEAMX Corn; [1],95%
same,"herbicidal activity, Corn",ZEAMX Corn; [2],96.3%
same,"herbicidal activity, Corn",ZEAMX Corn; [3],95%
same,"herbicidal activity, Corn",ZEAMX Corn; [4],97%
same,"herbicidal activity, Sunflower",HELSS Sunflower; [1],81%
same,"herbicidal activity, Sunflower",HELSS Sunflower; [2],94.3%
same,"herbicidal activity, Sunflower",HELSS Sunflower; [3],91.7%
same,"herbicidal activity, Sunflower",HELSS Sunflower; [4],95%
same,"herbicidal activity, Flax",LIUSS Flax; [1],74.3%
same,"herbicidal activity, Flax",LIUSS Flax; [2],88.3%
same,"herbicidal activity, Flax",LIUSS Flax; [3],76%
same,"herbicidal activity, Flax",LIUSS Flax; [4],90%
same,"herbicidal activity, Amaranth",AMASS Amaranth; [1],75.3%
same,"herbicidal activity, Amaranth",AMASS Amaranth; [2],91%
same,"herbicidal activity, Amaranth",AMASS Amaranth; [3],79.3%
same,"herbicidal activity, Amaranth",AMASS Amaranth; [4],96%
